Laboratory results: patent US20160331871A1, “Medical Devices Containing Nitroprusside and Antimicrobial Agents” (Teleflex Medical Incorporated, priority 2009, published 2016)

Tested on: Pseudomonas aeruginosa
Experiment: MIC/FIC determination of SNP alone and in combination with antimicrobial agents (96-well microtiter plate, OD 670 nm)
Type: cell-based, Pseudomonas aeruginosa ATCC 27853
Experimental: A few colonies of Pseudomonas aerugionsa ATCC 27853 were removed from secondary working cultures plated on Trypticase Soy Agar (hereinafter “TSA”) with 5% sheep's blood and added to 10 ml of Trypticase Soy Broth (hereinafter “TSB”). The vials were vortexed for approximately 30 seconds and incubated for 4 hours in a shaker incubator. Following incubation, they were removed and vortexed once more. The optical densities of the inoculum suspensions were read at a wavelength of 670 nm. The inoculum suspensions were subsequently diluted in sterile Cation Adjusted Mueller-Hinton Broth (hereinafter “CAMHB”) to a final concentration of 1-5×10^6 cfu/ml.
SNP was dissolved and diluted in sterile deionized water to get working concentrations of 1%, 0.9%, 0.8%, 0.7%, 0.6%, 0.5%, 0.4%, 0.3%, 0.2%, and 0.1% in the wells of a 96-well micro titer plate.
Chlorhexidine diacetate (hereinafter “CHA”) and gentian violet (hereinafter “GV”) were dissolved in sterile water. Rifampin (hereinafter “Rif”) was dissolved in dimethylsulfoxide (hereinafter “DMSO”). Silver nano particles were dispersed in sterile water.
A sterile 96 well micro titer plate was used to test the following: SNP alone and SNP in combination with CHA, GV, Rif, and Silver at concentrations as stated above. All tests were performed in triplicate.
Once all test wells had been filled, the lid of the plate was replaced and the plate was inserted into a Ziplock™ bag and sealed to reduce evaporation. Each plate was incubated without shaking at 37° C. for 18-46 hours depending on the microorganism.
After the appropriate incubation time had been met, the micro titer plate was removed from the incubator. The plate was then read on a Bio-Tek plate reader at a wavelength of 670 nm with the lid off.

Row | Structure (SMILES) | inhibitory concentration in combination with SNP as compared to alone | MIC/FIC (SNP 0% (agent alone)) [PPM] | MIC/FIC (in combination with SNP 0.2%) [PPM] | MIC/FIC (in combination with SNP 0.4%) | MIC/FIC (in combination with SNP 0.6%) [PPM]
1 | CC(=O)O.CC(=O)O.NC(=N\CCCCCC/N=C(N)/N=C(\N)Nc1ccc(Cl)cc1)/N=C(\N)Nc1ccc(Cl)cc1 [CHA, Chlorhexidine diacetate] | lower inhibitory concentrations |  |  |  | 
2 | N=C(NCCCCCCNC(=N)NC(=N)Nc1ccc(Cl)cc1)NC(=N)Nc1ccc(Cl)cc1.Nc1ccc(P(=O)(O)O)cc1.Nc1ccc(P(=O)(O)O)cc1 [CHP, chlorhexidine dipalmitate] |  | 4 | 4 | 1 PPM | 0
3 | CN(C)c1ccc(C(=C2C=CC(=[N+](C)C)C=C2)c2ccc(N(C)C)cc2)cc1 [GV, gentian violet] | lower inhibitory concentrations | 32 | 4 | 4 PPM | 0
4 | CO[C@H]1/C=C/O[C@@]2(C)Oc3c(C)c(O)c4c(O)c(c(/C=N/N5CCN(C)CC5)c(O)c4c3C2=O)NC(=O)/C(C)=C\C=C\[C@H](C)[C@H](O)[C@@H](C)[C@@H](O)[C@@H](C)[C@H](OC(C)=O)[C@@H]1C [Rifampin] | lower inhibitory concentrations | 16 | 16 | 2-4 PPM | 0
